Test results as given in patent US7994162B2, “2-alkoxy-3,4,5-trihydroxy-alkylamide-benzazepines, the preparation and use thereof, and compositions containing the same” (Sanofi-Aventis, priority 2006, dated 2011).

system: HCT116 cells; assay: Inhibition of the cell proliferation of HCT116 cells (14C-thymidine incorporation); format: cell-based; conditions: Homo sapiens, HCT-116, 96 hours
Method: The antiproliferative activity of the products of the examples of Table 1 was determined by measuring the inhibition of the cell proliferation of HCT116 cells. The cells are seeded into a cell culture medium at a concentration of 10 000 cells per well, in 0.17 ml of medium, and 20 μl of test product, at various concentrations and 10 μl of thymidine [methyl-14C] (100 μCi/ml—specific activity 47.90 mCi/mmol; NEN Technologies reference NEC568 batch 3550-001) are added and the cells are then incubated at 37° C. and 5% CO2.
Medium used for the HCT116 cell culture: DMEM medium, 2 mM L-glutamine, 200 IU/ml penicillin, 200 μg/ml streptomycin and 10% (V/V) foetal calf serum (Life Technologies).
After 96 hours, the ^14C-thymidine incorporation is counted in a 1450 Microbeta Wallac Trilux liquid scintillation counter. The results R are expressed in cpm (counts per minute) and converted to percentage growth inhibition GI % by firstly subtracting the mean of the number of cpm of the wells without cells B and then dividing by the number of cpm of the wells of the nontreated cells C comprising 20 μl of product diluting medium containing 1% of ethanol (GI %=(R−B)×100/C %).
The IC50 values are calculated using equation 205 of the XLFit software (IDBS company, UK) by nonlinear regression analysis using the Marquardt algorithm (Donald W. MARQUARDT, J. Soc. industry. appl, vol 11, No. 2, June, 1963).

| SMILES | IC50 [nM] |
| --- | --- |
| CO[C@@H](C(=O)NC1CCc2ccccc2N(Cc2cc(F)cc(F)c2)C1=O)[C@H](O)[C@@H](O)[C@H](O)/C=C/C(C)(C)C (stereo partly shown) [Example 1] | 14 |
| CO[C@@H](C(=O)NC1CCc2cc(Br)ccc2NC1=O)[C@H](O)[C@@H](O)[C@H](O)/C=C/C(C)(C)C (stereo partly drawn) [Example 3, N-(7-bromo-2-oxo-2,3,4,5-tetrahydro-1H-1-benzazepin-3-yl)-(E)-(2R,3R,4S,5R)-3,4,5-trihydroxy-2-methoxy-8,8-dimethylnon-6-enamide] | 58 |
| CO[C@@H](C(=O)NC1CCc2cc(-c3ccccc3)ccc2NC1=O)[C@H](O)[C@@H](O)[C@H](O)/C=C/C(C)(C)C (stereo partly drawn) [Example 4, N-(7-phenyl-2-oxo-2,3,4,5-tetrahydro-1H-1-benzazepin-3-yl)-(E)-(2R,3R,4S,5R)-3,4,5-trihydroxy-2-methoxy-8,8-dimethylnon-6-enamide] | 75 |

Results, then the compound that gave them:

| IC50 [nM] | SMILES |
| --- | --- |
| 15 | CO[C@@H](C(=O)NC1CCc2ccccc2N(C)C1=O)[C@H](O)[C@@H](O)[C@H](O)/C=C/C(C)(C)C (stereo partly shown) [Example 2] |
| 32 | CO[C@@H](C(=O)N[C@H]1CCc2cc(Br)ccc2NC1=O)[C@H](O)[C@@H](O)[C@H](O)/C=C/C(C)(C)C [Example 3a] |
| 14 | CO[C@@H](C(=O)N[C@H]1CCc2cc(-c3ccccc3)ccc2NC1=O)[C@H](O)[C@@H](O)[C@H](O)/C=C/C(C)(C)C [Example 4a, (2R,3R,4S,5R,6E)-3,4,5-trihydroxy-2-methoxy-8,8-dimethyl-N-[(3S)-2-oxo-7-phenyl-2,3,4,5-tetrahydro-1H-1-benzazepin-3-yl]non-6-enamide] |

system: not listed separately; assay: in vitro; conditions: human, Caco-2

| Papp [×10⁻⁶ cm/s] | SMILES |
| --- | --- |
| 4.8 | CO[C@@H](C(=O)N[C@H]1CCc2cc(-c3ccccc3)ccc2NC1=O)[C@H](O)[C@@H](O)[C@H](O)/C=C/C(C)(C)C [Example 4a, (2R,3R,4S,5R,6E)-3,4,5-trihydroxy-2-methoxy-8,8-dimethyl-N-[(3S)-2-oxo-7-phenyl-2,3,4,5-tetrahydro-1H-1-benzazepin-3-yl]non-6-enamide] |
